Data taken from US7115754B2, “Pyrrolidine derivatives as oxytocin antagonists” (Applied Research Systems ARS Holding N.V., priority 2002, dated 2006).

How the values were obtained:
[1] = biological target: T1, human Oxytocin (hOT) receptor (Homo sapiens, UniProt P30559); assay: In vitro competition binding assay on hOT receptor with scintillation proximity assay; conditions: inhibition of [125I]-OVTA binding, membranes from HEK293EBNA cells expressing hOT receptor; read-out: Binding Affinity hOT-R (Ki [nM])
T1 construct: expressed in transfected cells; host or cells: HEK293EBNA (membranes)
T1 sequence (P30559 1-389): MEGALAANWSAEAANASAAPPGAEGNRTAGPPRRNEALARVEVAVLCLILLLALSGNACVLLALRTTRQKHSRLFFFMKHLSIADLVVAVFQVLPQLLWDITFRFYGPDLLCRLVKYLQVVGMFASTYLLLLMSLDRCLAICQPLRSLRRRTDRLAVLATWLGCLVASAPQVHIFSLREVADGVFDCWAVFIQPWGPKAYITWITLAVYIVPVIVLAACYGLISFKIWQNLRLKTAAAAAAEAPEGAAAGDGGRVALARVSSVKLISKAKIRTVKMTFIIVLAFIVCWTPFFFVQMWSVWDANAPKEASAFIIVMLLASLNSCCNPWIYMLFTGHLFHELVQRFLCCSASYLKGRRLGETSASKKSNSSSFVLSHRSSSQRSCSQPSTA
Protocol: The compounds according to Formula I may be subjected to the following assays: • a) In vitro Competition Binding Assay on hOT Receptor with Scintillation Proximity Assay (11).
This assay allows to determine the affinity of the test compounds for the human Oxytocin (hOT) receptor. Membranes from HEK293EBNA (cells expressing the hOT receptor) were suspended in buffer containing 50 mM Tris-HCl, pH 7.4, 5 mM MgCl2 and 0.1% BSA (w/v). The membranes (2–4 μg) were mixed with 0.1 mg SPA bead coated with wheat-germ aglutinin (WGA-PVT-Polyethylene Imine beads from Amersham) and 0.2 nM of the radiolabelled [^125I]-OVTA (OVTA being Ornithin Vasoactive, an analogue of OT for competitive binding experiments). Non-specific binding was determined in the presence of 1 μM Oxytocin. The total assay volume was 100 μl. The plates (Corning® NBS plate) were incubated at room temperature for 30 min and counted on a Mibrobeta® plate scintillation counter. Competitive binding was performed in presence of compounds of formula (I) at the following concentrations: 30 μM, 10 μM, 1 μM, 300 nM, 100 nM, 10 nM, 1 nM, 100 pM, 10 pM. The competitive binding data were analysed using the iterative, nonlinear, curve-fitting program, “Prism” (GraphPad Software, Inc).
The ability of pyrrolidine derivatives of formula (I) to inhibit the binding of ^125-OVTA to the OT-receptor was assessed using the above described in vitro biological assay. Representative values for some example compounds are given in Table I where the binding affinity of test compounds from the above examples is expressed by the inhibition constant (Ki; nM). From these values, it can be derived that said test compounds according to formula I do show a significant binding to the oxytocin receptor.

[2] = biological target: T2, hOT receptor (HEK293EBNA cells expressing the hOT receptor) (Homo sapiens, UniProt P30559); assay: Functional assay No. 1: inhibition of oxytocin mediated Ca2+-mobilization by FLIPR; format: cell-based; conditions: OT 40 nM, fluo-4, read-out: Inhibition of Ca2+ mobilisation, hOT-R IC50
T2 construct: expressed in transfected cells; host or cells: HEK293EBNA
T2 sequence (P30559 1-389): T1 sequence (P30559 1-389)
Protocol: This assay allows the measurement of the inhibition of OT/OT-R mediated calcium mobilization by test compounds of formula (I).
Preparing the plates: FLIPR-plates were pre-coated with PLL (Poly-L-Lysine) 10 μg/ml+0.1% gelatine to attach HEK293EBNA cells (Human Embryonic Kidney cells expressing the hOT receptor) and incubated for 30 min up to 2 days at 37° C. The cells were plated out into 96-well-plates (60000 cells/well).
Labelling with fluo-4: 50 μg of fluo-4 (Ca2+ sensitive fluorescent dye) were dissolved in 20 μl pluronic acid (20% in DMSO). The dissolved fluo-4 was then diluted in 10 ml DMEM (Dubecco's Minimal Essential Medium)-F12 culture medium. The plates were washed one time with DMEM-F12 medium. […] Fluo-4 is taken up by the cytoplasm of the cells. […]
The relative fluorescence of Fluo-4 (λex=488 nm, λem=590 nm) is then measured by the FLIPR in presence or absence of compounds of formula (I). The fluorescence of the marker being sensitive to the amount of Ca^2+, the Ca^2+ movements can be detected. Then, it can be determined the ability of compounds of formula (I) to antagonize the oxytocin-induced intracellular Ca^2+-mobilization mediated by the oxytocin receptor.
The activities of the pyrrolidine derivatives according to formula I were assessed using the above described in vitro biological assay. […]

[3] = tested on: oxytocin-induced uterine contractions in the rat; assay: In vivo model for inhibition of uterine contractions; conditions: 40 min after test compound administration
Protocol: The ability of compounds of formula (I) to effectively antagonize oxytocin-induced IP3-synthesis mediated by the oxytocin receptor, can be assessed using the above described in vitro biological assay. • d) In vivo Model for Inhibition of Uterine Contractions
The assay evaluates the biological effect of tested compounds in an in vivo model of preterm labor, premature birth.
Non-pregnant Charles River CD (SD) BR female rats (9–10 weeks old, 200–250 g) were treated at 18 and 24 hours before the experiment with 250 μg/kg, i.p. diethylstilbestrol (DES). For the assay, the animal was anaesthetised with urethane (1.75 g/kg, i.p.) and placed on a homeothermic operating table. The trachea was isolated and cannulated with a suitable polyethylene (PE) tubing. […]
The contractile response of the uterus to oxytocin was quantified by measuring the intra-uterine pressure and the number of contractions. The effect of the reference and test compounds was evaluated by comparing pre- and post-treatment pressure values. In addition, contractions of the uterine were measured at 5, 40, 75, 110, 145 and 180 minutes after test compound administration.
The activities of the pyrrolidine derivatives claimed in the Formula I can be assessed using the above described in vivo biological assay. […]

Row | Structure (SMILES) | Ki [1] [nM] | IC50 [2] [µM] | % Reduction of Uterine Contraction ([3]; 10 mg/kg per i.v.) [%] | % Reduction of Uterine Contraction ([3]; 30 mg/kg per os) [%]
1 | CON=C1C[C@@H](CO)N(C(=O)c2ccc(-c3ccccc3)cc2)C1 [Compound 2, (3EZ,5S)-1-(1,1′-biphenyl-4-ylcarbonyl)-5 (hydroxymethyl) pyrrolidin-3-one O-methyloxime] | 139 | 0.09 | 39.8 ± 10.0 | 50.9 ± 8.6
2 | CO/N=C1/C[C@@H](CO)N(C(=O)c2ccc(-c3ccccc3)cc2)C1 [Compound 4, (3Z,5S)-1-(1,1′-biphenyl-4-ylcarbonyl)-5-(hydroxymethyl) pyrrolidin-3-one O-methyloxime] | 94.9 | 0.01 | – | –
3 | CON=C1C[C@@H](COCC(=O)NCCN2CCCC2)N(C(=O)c2ccc(-c3ccccc3)cc2)C1 [Compound 7, 2-{[(2S,4EZ)-1-(1,1′-biphenyl-4-ylcarbonyl)-4-(methoxyimino)pyrrolidin-2-yl]methoxy}-N-(2-pyrrolidin-1-ylethyl)acetamide] | 140 | – | – | –
4 | COC[C@@H]1CC(=NOC)CN1C(=O)c1ccc(-c2ccccc2)cc1 [Compound 8, (3EZ,5S)-1-(1,1′-biphenyl-4-ylcarbonyl)-5-(methoxymethyl)pyrrolidin-3-one O-methyloxime] | 55 | – | – | –
5 | CON=C1C[C@@H](CN2C(=O)c3ccccc3C2=O)N(C(=O)c2ccc(-c3ccccc3)cc2)C1 [Compound 12, 2-{[(2S,4EZ)-1-(1,1′-biphenyl-4-ylcarbonyl)-4-(methoxyimino)pyrrolidin-2-yl]methyl}-1H-isoindole-1,3(2H)-dione] | 5.1 | – | – | –
6 | CON=C1C[C@@H](CCO)N(C(=O)c2ccc(-c3ccccc3)cc2)C1 [Compound 16, (3EZ,5S)-1-(1,1′-biphenyl-4-ylcarbonyl)-5-(2-hydroxyethyl)pyrrolidin-3-one O-methyloxime] | 120 | – | – | –
